Data set [1] deals with mouse. Particulars: Subchronic oral toxicity in rodents, b6c3f1, Feed, dose end: 7 week, group: systemic, systemic / in life observation / body weight / body weight.
The test system of data set [2] is rat. Particulars: Combined chronic toxicity/carcinogenicity, fischer, Oral, Feed, dose end: 103 week, group: systemic.
The test system of data set [3] is mouse. Particulars: Carcinogenicity; b6c3f1; Oral; Feed; dose end: 101 week; group: systemic; systemic / in life observation / body weight / body weight + systemic / pathology microscopic / liver / hyperplasia + systemic / pathology ….
In data set [4] the test system is rat. Particulars: Subchronic oral toxicity in rodents, fischer, Feed, dose end: 7 week, group: systemic.
Data set [5] relates to rat. Particulars: Carcinogenicity; fischer; Oral; Feed; dose end: 78 week; group: systemic; systemic / in life observation / body weight / body weight.
For data set [6], the system named is mouse. Particulars: Carcinogenicity; b6c3f1; Oral; Feed; dose end: 78 week; group: systemic; systemic / in life observation / body weight / body weight.
Data set [7] deals with mouse. Particulars: Prenatal developmental toxicity study; cd1; Oral; Gavage/Intubation; dose end: 14 GD; group: maternal; systemic / in life observation / body weight / body weight gain + systemic / in life observation / mortality / mortality.
The subject of data set [8] is dog. Particulars: Chronic toxicity; beagle; Oral; [Not Specified]; dose end: 12 month; group: systemic; systemic / in life observation / body weight / body weight + systemic / in life observation / body weight / body weight gain + systemic / ….
Data set [9] has as its system dog. Particulars: Subchronic oral toxicity in nonrodent, beagle, Feed, dose end: 90 day, group: systemic, systemic / pathology microscopic / kidney / vacuolization.
Data set [10] has as its system rat. Particulars: Carcinogenicity; wistar; Oral; [Not Specified]; dose end: 24 month; group: systemic; systemic / in life observation / mortality / mortality.
For data set [11], the system named is mouse. Particulars: Carcinogenicity, b6c3f1, Oral, Feed, dose end: 24 month, group: systemic.
Data set [12] relates to rat. Particulars: Chronic toxicity, wistar, Oral, Feed, dose end: 108 week, group: systemic.
The test system of data set [13] is mouse. Particulars: Subchronic oral toxicity in rodents, b6c3f1, Gavage/Intubation, dose end: 13 week, group: systemic, systemic / in life observation / mortality / mortality.
For data set [14], the system named is rat. Particulars: Carcinogenicity; fischer; Oral; Gavage/Intubation; dose end: 103 week; group: systemic; systemic / pathology microscopic / stomach / hyperkeratosis + systemic / pathology microscopic / stomach / hyperplasia + systemic / ….
The test system of data set [15] is mouse. Particulars: Carcinogenicity; b6c3f1; Oral; Gavage/Intubation; dose end: 103 week; group: systemic; systemic / pathology microscopic / stomach / hyperkeratosis + systemic / pathology microscopic / stomach / hyperplasia + systemic / ….
Data set [16] concerns rat. Particulars: Subchronic oral toxicity in rodents, wistar, Feed, dose end: 14 week, group: systemic.
Data set [17] concerns rat. Particulars: Multigenerational reproductive toxicity study, wistar, Oral, Feed, dose end: 2 generation.
Data set [18] relates to dog. Particulars: Chronic toxicity; beagle; Oral; Feed; dose end: 52 week; group: systemic; systemic / clinical chemistry / aminopyrine-n-demethylase / aminopyrine-n-demethylase + systemic / in life observation / body weight / body ….
The subject of data set [19] is mouse. Particulars: Carcinogenicity; b6c3f1; Oral; Feed; dose end: 104 week; group: systemic; systemic / in life observation / body weight / body weight + systemic / in life observation / body weight / body weight gain + systemic / in….
The next data set has as its system rabbit. Particulars: Prenatal developmental toxicity study, himalayan, Oral, Gavage/Intubation, dose end: 28 GD.
Setting [20] is: systemic / in life observation / body weight / body weight.
Where [21] appears, read: systemic / in life observation / body weight / body weight + systemic / pathology microscopic / lung / mixed tumor nos + systemic / ….
The mark [22] stands for this setting: systemic / in life observation / body weight / body weight + systemic / in life observation / body weight / body weight gain + systemic / ….
Where [23] appears, read: systemic / in life observation / body weight / body weight + systemic / clinical chemistry / calcium / calcium + systemic / clinical ….
[24] abbreviates: systemic / organ weight / spleen / absolute + systemic / organ weight / spleen / relative to body weight + systemic / clinical chemistry / ….
Setting [25] is: group: offspring, systemic / in life observation / body weight / offspring (pup) weight + systemic / pathology gross / liver / irregular surface + systemic / ….
Where [26] appears, read: group: developmental, developmental / developmental malformation / bone / incomplete ossification + systemic / in life observation / body weight / fetal weight.
Where [27] appears, read: group: developmental, developmental / developmental malformation / bone / incomplete ossification + systemic / in life observation / body weight / fetal weight + ….
Where [28] appears, read: group: maternal, systemic / in life observation / clinical signs / alopecia + systemic / in life observation / clinical signs / cold ears + systemic / in ….

Regarding `Cc1ccc(N)cc1N` [2,4-Diaminotoluene], the LEL with mouse [1] is 30 mg/kg/day; with rat [2] (setting [21]), 3.95 mg/kg/day; with mouse [3], 15 mg/kg/day; with rat [4] (setting [20]), 12.5 mg/kg/day. For the same compound, the LOAEL with mouse [1] came to 45 mg/kg/day; in the data set with rat [2] (setting [20]), 3.95 mg/kg/day; in the data set with mouse [3] it was 15 mg/kg/day; with rat [4] (setting [20]) it was 25 mg/kg/day. Besides, the NEL in the data set on mouse [1] was 15 mg/kg/day; in the data set on rat [2] (setting [21]), under 3.95 mg/kg/day; with mouse [3], under 15 mg/kg/day; with rat [4] (setting [20]) it was under 12.5 mg/kg/day. Also, the NOAEL was 30 mg/kg/day in the data set with mouse [1], under 3.95 mg/kg/day in the data set with rat [2] (setting [20]), under 15 mg/kg/day in the data set with mouse [3] and 12.5 mg/kg/day in the data set on rat [4] (systemic / in life observation / body weight / body weight + systemic / in life observation / mortality / mortality + systemic / pathology …).

In the data set with rat [5], `Cc1ccc([N+](=O)[O-])cc1N` [2-Methyl-5-nitroaniline] returned an LEL of 2.5 mg/kg/day, an LOAEL of 2.5 mg/kg/day, an NEL of under 2.5 mg/kg/day and an NOAEL of under 2.5 mg/kg/day. In the data set on mouse [6], the LEL was found to be 180 mg/kg/day, the LOAEL stood at 180 mg/kg/day, the NEL was under 180 mg/kg/day and the NOAEL is under 180 mg/kg/day.

For the compound `O=[N+]([O-])c1ccc(O)cc1` [4-Nitrophenol], in the data set with mouse [7], the LEL came to 400 mg/kg/day, the lowest observed adverse effect level (LOAEL) was over 400 mg/kg/day, the NEL is under 400 mg/kg/day and the NOAEL was at least 400 mg/kg/day.

On to `Nc1cnn(-c2ccccc2)c(=O)c1Cl` [Chloridazon], for which the LEL in the data set on dog [8] was found to be 186 mg/kg/day; in the data set on dog [9], 133 mg/kg/day; with rat [10], 150 mg/kg/day; in the data set with mouse [11] (systemic / pathology microscopic / lung / adenoma), 146 mg/kg/day; with rat [12] (systemic / in life observation / body weight / body weight + systemic / clinical chemistry / calcium / calcium) it was 60 mg/kg/day. Besides, the LOAEL was 186 mg/kg/day in the data set with dog [8]; 133 mg/kg/day in the data set with dog [9]; over 200 mg/kg/day in the data set on rat [10]; 762 mg/kg/day in the data set with mouse [11] (systemic / in life observation / body weight / body weight + systemic / in life observation / body weight / body weight gain); 60 mg/kg/day with rat [12] (setting [20]). Also, the NEL in the data set on dog [8] was under 186 mg/kg/day; in the data set with dog [9] it was under 133 mg/kg/day; with rat [10] it was under 150 mg/kg/day; in the data set with mouse [11] (setting [22]), 28 mg/kg/day; in the data set on rat [12] (setting [23]), 18 mg/kg/day. For the same compound, the NOAEL was under 186 mg/kg/day with dog [8]; under 133 mg/kg/day in the data set with dog [9]; at least 200 mg/kg/day in the data set with rat [10]; 146 mg/kg/day with mouse [11] (setting [22]); 18 mg/kg/day in the data set with rat [12] (setting [23]).

For `C=CC(=O)OCC` [Ethyl acrylate], in the data set with mouse [13], the LEL worked out at 25 mg/kg/day, the LOAEL is over 25 mg/kg/day, the NEL stood at 12 mg/kg/day and the NOAEL is at least 25 mg/kg/day. Moreover, in the data set on rat [14], the LEL amounted to 100 mg/kg/day, the LOAEL is 100 mg/kg/day, the NEL was under 100 mg/kg/day and the NOAEL was under 100 mg/kg/day. For the same compound, in the data set on mouse [15], the LEL came to 100 mg/kg/day, the LOAEL came out at 100 mg/kg/day, the NEL is under 100 mg/kg/day and the NOAEL is under 100 mg/kg/day.

With `COc1nn(C(=O)[N-]S(=O)(=O)c2ccccc2OC(F)(F)F)c(=O)n1C.[Na+]` [Flucarbazone-sodium], the LEL in the data set on rat [16] (systemic / organ weight / spleen / absolute + systemic / organ weight / spleen / relative to body weight) was found to be 73.5 mg/kg/day; with rat [17] (setting [25]), 1060 mg/kg/day; in the data set with rat [17] (group: parental, systemic / pathology gross / intestine large / dilatation), 453 mg/kg/day; in the data set on dog [18] it was 183 mg/kg/day; in the data set on mouse [19], 2070 mg/kg/day; in the data set on rabbit (setting [26]) it was 500 mg/kg/day. In addition, in the data set with rabbit (setting [28]), the LEL was 300 mg/kg/day. For the same compound, the NEL with rat [16] (setting [24]) was found to be 17.6 mg/kg/day; in the data set with rat [17] (setting [25]), 346 mg/kg/day; with rat [17] (group: parental, systemic / pathology gross / intestine large / dilatation + systemic / in life observation / clinical signs / defecation + systemic / in …), 5.5 mg/kg/day; with dog [18], 35.9 mg/kg/day; in the data set with mouse [19] it was 275 mg/kg/day; with rabbit (setting [27]) it was 300 mg/kg/day. The NEL in the data set with rabbit (setting [28]) worked out at 100 mg/kg/day. Further, the NOAEL with rat [16] (setting [24]) was 73.5 mg/kg/day; in the data set with rat [17] (setting [25]), 346 mg/kg/day; with rat [17] (group: parental, systemic / organ weight / uterus / absolute + systemic / in life observation / body weight / body weight + systemic / in life observation / …) it was 340 mg/kg/day; in the data set with dog [18], 35.9 mg/kg/day; in the data set with mouse [19] it was 275 mg/kg/day; in the data set on rabbit (setting [27]), 300 mg/kg/day. Besides, the NOAEL in the data set on rabbit (setting [28]) worked out at 100 mg/kg/day. Besides, the LOAEL came to 287 mg/kg/day in the data set on rat [16] (systemic / organ weight / spleen / absolute + systemic / organ weight / spleen / relative to body weight + systemic / pathology microscopic…); 1060 mg/kg/day in the data set with rat [17] (setting [25]); 991 mg/kg/day in the data set on rat [17] (group: parental, systemic / organ weight / uterus / absolute); 183 mg/kg/day in the data set on dog [18]; 2070 mg/kg/day with mouse [19]; 500 mg/kg/day with rabbit (setting [26]). In addition, in the data set with rabbit (setting [28]), the LOAEL is 300 mg/kg/day.

Source of the values: EPA's ToxRefDB 2.
